Assay results taken from patent US20260027163A1, “GUT MICROBIOME BACTERIA AND ENZYMES THAT METABOLIZE DIETARY AND MEDICINAL PLANT SMALL MOLECULES TO AFFECT GUT MICROBIOME” (The Children's Medical Center Corporation, priority 2022, published 2026).

What was measured:
[1] = test system: DSS-induced intestinal inflammation; test: DSS-induced colitis, pure compound delivered orally; type: in vivo, mice
Description: (§1) The present disclosure identifies and characterizes a novel mechanism by which the gut microbiome transforms abundant and chemically diverse small molecule components of human diet to drive pro-homeostatic programs in the intestine.

[2] = molecular target: T1, AhR (Mus musculus, UniProt P30561); test: In vivo AhR activation in colitis, reversal with competitive AhR antagonist; details: FIG. 9
T1 construct: endogenous in cells
T1 sequence (P30561 10-848): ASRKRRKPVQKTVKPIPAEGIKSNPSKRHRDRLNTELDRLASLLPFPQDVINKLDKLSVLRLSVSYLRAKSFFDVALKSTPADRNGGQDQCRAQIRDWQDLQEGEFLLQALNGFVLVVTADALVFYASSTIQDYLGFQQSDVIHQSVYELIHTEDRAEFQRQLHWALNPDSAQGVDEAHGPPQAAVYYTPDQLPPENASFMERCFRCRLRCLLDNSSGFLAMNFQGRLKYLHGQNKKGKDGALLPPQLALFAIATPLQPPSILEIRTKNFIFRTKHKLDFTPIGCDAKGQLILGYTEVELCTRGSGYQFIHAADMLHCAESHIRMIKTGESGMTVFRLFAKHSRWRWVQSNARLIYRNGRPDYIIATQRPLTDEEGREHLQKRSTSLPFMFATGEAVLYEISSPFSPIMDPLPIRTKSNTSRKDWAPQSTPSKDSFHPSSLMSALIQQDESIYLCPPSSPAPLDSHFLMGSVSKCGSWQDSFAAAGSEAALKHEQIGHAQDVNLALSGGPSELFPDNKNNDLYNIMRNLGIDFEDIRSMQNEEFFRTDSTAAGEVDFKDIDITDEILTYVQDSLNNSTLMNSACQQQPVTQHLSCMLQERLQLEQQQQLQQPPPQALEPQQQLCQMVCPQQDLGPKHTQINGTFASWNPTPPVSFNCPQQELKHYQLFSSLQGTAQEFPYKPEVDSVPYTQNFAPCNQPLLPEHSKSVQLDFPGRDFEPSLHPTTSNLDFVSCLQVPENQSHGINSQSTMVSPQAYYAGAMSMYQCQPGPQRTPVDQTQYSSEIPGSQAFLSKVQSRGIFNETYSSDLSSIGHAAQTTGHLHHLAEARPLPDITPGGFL
Description: as §1

[3] = molecular target: T2, AhR (Homo sapiens, UniProt P35869); test: Activation of xenobiotic sensor AhR; type: cell-based; details: FIG. 4
T2 sequence (P35869 11-848): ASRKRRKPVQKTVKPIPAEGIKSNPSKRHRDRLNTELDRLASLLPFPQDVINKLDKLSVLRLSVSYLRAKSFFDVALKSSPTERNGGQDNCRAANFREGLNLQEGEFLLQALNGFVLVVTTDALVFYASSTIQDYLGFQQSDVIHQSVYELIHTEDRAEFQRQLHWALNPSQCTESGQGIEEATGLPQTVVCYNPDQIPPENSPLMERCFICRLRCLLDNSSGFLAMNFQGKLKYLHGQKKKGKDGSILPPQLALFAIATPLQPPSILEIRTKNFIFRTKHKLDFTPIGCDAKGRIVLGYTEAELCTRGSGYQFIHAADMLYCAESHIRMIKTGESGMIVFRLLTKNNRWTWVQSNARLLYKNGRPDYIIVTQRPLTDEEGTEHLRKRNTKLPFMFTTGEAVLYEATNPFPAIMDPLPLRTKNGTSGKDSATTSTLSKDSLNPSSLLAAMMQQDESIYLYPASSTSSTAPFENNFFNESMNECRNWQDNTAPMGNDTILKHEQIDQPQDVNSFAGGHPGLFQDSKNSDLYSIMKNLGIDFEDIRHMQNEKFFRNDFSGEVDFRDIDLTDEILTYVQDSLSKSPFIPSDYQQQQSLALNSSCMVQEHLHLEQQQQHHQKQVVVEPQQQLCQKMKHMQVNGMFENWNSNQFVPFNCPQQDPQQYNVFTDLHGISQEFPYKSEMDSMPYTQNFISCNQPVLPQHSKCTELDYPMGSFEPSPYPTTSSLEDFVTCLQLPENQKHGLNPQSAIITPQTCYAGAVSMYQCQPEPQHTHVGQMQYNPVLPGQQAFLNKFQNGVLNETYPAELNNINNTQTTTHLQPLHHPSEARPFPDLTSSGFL
Description: Saligenin […] AhR, a xenobiotic immune sensor that drives pro-homeostatic processes in gut epithelia and immune cells.

[4] = test system: macrophages stimulated with pro-inflammatory LP5; test: Inflammatory cytokine production by stimulated macrophages after saligenin pre-treatment; type: cell-based; details: in vitro, FIGS. 1A-1B
[5] = test system: DSS-induced colitis; test: DSS-induced colitis, bioactivation of salicin by Bacteroides uniformis; type: in vivo; details: salicin bioactivated to saligenin by Bacteroides uniformis; FIGS. 7A-7B
Description: as §1

Row | SMILES | Th1-effector cells ([1]; DSS exposure, FIGS. 6A-6B) | colonic IFN-gamma ([1]; DSS exposure, FIGS. 11A-11B) | protection against DSS-induced intestinal inflammation ([1]; pure compound delivered orally daily for 7 days, mice, FIGS. 8A-8B) | AhR activation in vivo, reversibility by antagonist [2] | AhR activation [3] | inflammatory cytokine production [4] | protection against DSS-induced colitis [5]
1 | OCc1ccccc1O [saligenin] | decrease in Th1-effector cells | decrease in colonic IFN-gamma | protected against DSS-induced intestinal inflammation | can be reversed with a competitive AhR antagonist | activated | attenuated inflammatory cytokine production | –
2 | OCc1ccccc1O[C@@H]1O[C@H](CO)[C@@H](O)[C@H](O)[C@H]1O [salicin] | – | – | – | – | – | – | protected against DSS-induced colitis
